Assay results: patent publication US6380218B1, “Nicotinamide derivatives” (Pfizer Inc, priority 1997, dated 2002)

SMILES	melting point
Cc1ccsc1CNC(=O)c1cccnc1Oc1cncc(Cl)c1 [Example 54, 2-(5-Chloro-pyridin-3-yloxy)-N-(3-methyl-thiophen-2-ylmethyl)-nicotinamide]	115 to 117 °C
O=C(NCc1cc(Cl)cs1)c1cccnc1Oc1cncc(Cl)c1 [Example 55, 2-(5-Chloro-pyridin-3-yloxy)-N-(4-chloro-thiophen-2-ylmethyl)-nicotinamide]	94 to 96 °C
O=C(NCc1cc2ccccc2s1)c1cccnc1Oc1cncc(Cl)c1 [Example 56, N-Benzo[b]thiophen-2-ylmethyl-2-(5-chloro-pyridin-3-yloxy)-nicotinamide]	160 to 162 °C
O=C(NCc1ccc(Cl)o1)c1cccnc1Oc1cncc(Cl)c1 [Example 57, N-(5-Chloro-furan-2-ylmethyl)-2-(5-chloro-pyridin-3-yloxy)-nicotinamide]	111 to 113 °C
O=C(NCC1CCCCC1)c1cccnc1Oc1cncc(Cl)c1 [Example 58, 2-(5-Chloro-pyridin-3-yloxy)-N-cyclohexylmethyl-nicotinamide]	95 to 97 °C
CC(C)(O)c1ccc(CNC(=O)c2cccnc2Oc2cncc(Cl)c2)cc1 [Example 59, 2-(5-Chloro-pyridin-3-yloxy)-N-[4-(1-hydroxy-1-methyl-ethyl)-benzyl]-nicotinamide]	78 to 80 °C
CC(C)(O)c1cc(Cl)c(CNC(=O)c2cccnc2Oc2cncc(Cl)c2)s1 [Example 60, N-[3-Chloro-5-(1-hydroxy-1-methyl-ethyl)-thiophen-2-ylmethyl]-2-(5-chloro-pyridin-3-yloxy)-nicotinamide]	72 to 74 °C
O=C(NCc1ccc(Cl)s1)c1cccnc1Oc1ccc(F)cc1 [Example 61, N-(5-Chloro-thiophen-2-ylmethyl)-2-(4-fluoro-phenoxy)-nicotinamide]	91 to 93 °C
O=C(NCc1cc(Cl)cs1)c1cccnc1Oc1ccc(F)cc1 [Example 62, N-(4-Chloro-thiophen-2-ylmethyl)-2-(4-fluoro-phenoxy)-nicotinamide]	99 to 101 °C
O=C(NCc1ccc(Cl)o1)c1cccnc1Oc1ccc(F)cc1 [Example 63, N-(5-Chloro-furan-2-ylmethyl)-2-(4-fluoro-phenoxy)-nicotinamide]	116 to 118 °C
O=C(NCc1cc2ccccc2s1)c1cccnc1Oc1ccc(F)cc1 [Example 65, N-Benzo[b]thiophen-2-ylmethyl-2-(4-fluoro-phenoxy)-nicotinamide]	109 to 111 °C
O=C(NCc1c(F)cc(F)cc1F)c1cccnc1Oc1ccc(F)cc1 [Example 67, 2-(4-Fluoro-phenoxy)-N-(2,4,6-trifluoro-benzyl)-nicotinamide]	128 to 130 °C
O=C(NCc1scc(Cl)c1Cl)c1cccnc1Oc1ccc(F)cc1 [Example 68, N-(3,4-Dichloro-thiophen-2-ylmethyl)-2-(4-fluoro-phenoxy)-nicotinamide]	132 to 134 °C
O=C(NCc1sccc1Cl)c1cccnc1Oc1ccc(F)cc1 [Example 69, N-(3-Chloro-thiophen-2-ylmethyl)-2-(4-fluoro-phenoxy)-nicotinamide]	134 to 136 °C
O=C(NCc1ccccc1Cl)c1cccnc1OCc1ccc(F)cc1 [Example 70, N-(2-Chloro-benzyl)-2-(4-fluoro-benzyloxy)-nicotinamide]	64 to 66 °C
O=C(NCc1ccc([N+](=O)[O-])cc1)c1cccnc1Oc1ccc(F)cc1 [Example 72, 2-(4-Fluoro-phenoxy)-N-(4-nitro-benzyl)-nicotinamide]	155 to 157 °C
O=C1Cc2cc(CNC(=O)c3cccnc3Oc3ccc(F)cc3)ccc2N1 [Example 73, 2-(4-Fluoro-phenoxy)-N-(2-oxo-2,3-dihydro-1H-indol-5-ylmethyl)-nicotinamide]	180 to 182 °C
O=C(Nc1ccc2[nH]c(=O)oc2c1)c1cccnc1Oc1ccc(F)cc1 [Example 74, 2-(4-Fluoro-phenoxy)-N-(2-oxo-2,3-dihydro-benzooxazol-6-yl)-nicotinamide]	289 to 291 °C
CCOC(=O)c1cc2cc(CNC(=O)c3cccnc3Oc3ccc(F)cc3)ccc2[nH]1 [Example 75, 5-({[2-(4-Fluoro-phenoxy)-pyridine-3-carbonyl]-amino}-methyl)-1H-indole-2-carboxylic acid ethyl ester]	185 to 187 °C
CC(C)(C)c1cc(CNC(=O)c2cccnc2Oc2ccc(F)cc2)cc(C(C)(C)C)c1O [Example 76, N-[3,5-Di-tert-butyl-4-hydroxy-benzyl)-2-(4-fluoro-phenoxyl)nicotinamide]	45 to 47 °C
Cc1cc(CNC(=O)c2cccnc2Oc2ccc(F)cc2)cc(C)c1O [Example 78, 2-(4-Fluoro-phenoxy)-N-(4-hydroxy-3,5-dimethyl-benzyl)-nicotinamide]	142 to 144 °C
CC(C)(O)c1ccc(CNC(=O)c2cccnc2Oc2ccc(F)cc2)o1 [Example 79, 2-(4-Fluoro-phenoxy)-N-[5-(1-hydroxy-1-methyl-ethyl)-furan-2-ylmethyl]-nicotinamide]	88 to 90 °C

SMILES	melting point
CCC(O)(CC)c1ccc(CNC(=O)c2cccnc2Oc2ccc(F)cc2)s1 [Example 80, N-[5-(1-Ethyl-1-hydroxy-propyl)-thiophen-2-ylmethyl]-2-(4-fluoro-phenoxy)-nicotinamide]	95 to 97 °C
CC(C)(O)c1sc(CNC(=O)c2cccnc2Oc2ccc(F)cc2)cc1Cl [Example 81, N-[4-Chloro-5-(1-hydroxy-1-methyl-ethyl]-thiophen-2-ylmethyl]-2-(4-fluoro-phenoxy)-nicotinamide]	115 to 117 °C
CC(NC(=O)c1cccnc1Oc1ccc(F)cc1)c1ccc(Br)cc1 (centres unmarked) [Example 82, N-[1-(4-Bromo-phenyl)-ethyl]-2-(4-fluoro-phenoxy)-nicotinamide]	120 to 122 °C
CC(C)(O)c1cc(Cl)c(CNC(=O)c2cccnc2Oc2ccc(F)cc2)s1 [Example 84, N-[3-Chloro-5-(1-hydroxy-1-methyl-ethyl)-thiophen-2-ylmethyl]-2-(4-fluoro-phenoxy)-nicotinamide]	85 to 87 °C
O=C(NCc1ccc(C2(O)CCC2)cc1)c1cccnc1Oc1ccc(F)cc1 [Example 85, 2-(4-Fluoro-phenoxy)-N-[4-(1-hydroxy-cyclobutyl)-benzyl]-nicotinamide]	95 to 97 °C
CC(C)(O)c1ccc(CNC(=O)c2cccnc2Oc2ccc(F)cc2)c(Cl)c1 [Example 86, N-[2-Chloro-4-(1-hydroxy-1-methyl-ethyl)-benzyl]-2-(4-fluoro-phenoxy)-nicotinamide]	102 to 104 °C
O=C(NCc1ccc(N2CCC2)cc1)c1cccnc1Oc1ccc(F)cc1 [Example 87, N-(4-Azetidin-1-yl-benzyl)-2-(4-fluoro-phenoxy)-nicotinamide]	128 to 129 °C
O=C(NCc1ccc(N2CC(O)C2)cc1)c1cccnc1Oc1ccc(F)cc1 [Example 88, 2-(4-Fluoro-phenoxy)-N-[4-(3-hydroxy-azetidin-1-yl)-benzyl]-nicotinamide]	157 to 159 °C
O=C(NCc1ccc(N2CCCC2)cc1)c1cccnc1Oc1ccc(F)cc1 [Example 89, 2-(4-Fluoro-phenoxy)-N-(4-pyrrolidin-1-yl-benzyl)-nicotinamide]	127 to 128 °C
O=C(NCc1ccc(N2CCCCC2)cc1)c1cccnc1Oc1ccc(F)cc1 [Example 90, 2-(4-Fluoro-phenoxy)-N-(4-piperidin-1-yl-benzyl)-nicotinamide]	118 to 119 °C
O=C(NCc1ccc(N2CCOCC2)cc1)c1cccnc1Oc1ccc(F)cc1 [Example 91, 2-(4-Fluoro-phenoxy)-N-(4-morpholin-4-yl-benzyl)-nicotinamide]	163 to 165 °C
O=C1CCN(c2ccc(CNC(=O)c3cccnc3Oc3ccc(F)cc3)cc2)CC1 [Example 92, 2-(4-Fluoro-phenoxy)-N-[4-(4-oxo-piperidin-1-yl)-benzyl]-nicotinamide]	138 to 139 °C
CC1(c2ccc(CNC(=O)c3cccnc3Oc3ccc(F)cc3)cc2)OCCO1 [Example 94, 2-(4-Fluoro-phenoxy)-N-[4-(2-methyl-[1,3]dioxolan-2-yl)-benzyl]-nicotinamide]	78 to 80 °C
O=C(NCc1sc(Cl)cc1Cl)c1cccnc1Oc1ccc(F)cc1 [Example 97, N-(3,5-Dichloro-thiophen-2ylmethyl)-2-(4-fluoro-phenoxy)-nicotinamide]	132 to 134 °C
O=C(NCC1CC1)c1cccnc1Oc1cncc(Cl)c1 [Example 98, 2-(5-Chloro-pyridin-3-yloxy)-N-cyclopropylmethyl-nicotinamide]	105 to 107 °C
CC(C)(O)c1ccc(CNC(=O)c2cccnc2Oc2ccc(F)c(C#N)c2)c(F)c1 [Example 99, 2-(3-Cyano-4-fluoro-phenoxy)-N-[2-fluoro4-(1-hydroxy-1-methyl-ethyl)-benzyl]-nicotinamide]	157 to 159 °C
O=C(NCc1ccc(O)cc1)c1cccnc1Oc1ccc(F)cc1 [Example 103, 2-(4-Fluoro-phenoxy)-N-(4-hydroxy-benzyl)-nicotinamide]	185 to 187 °C
O=C(NCc1ccc(O)cc1)c1cccnc1Oc1cccnc1 [Example 104, N-(4-Hydroxy-benzyl)-2-(pyridin-3yloxy)-nicotinamide]	156 to 158 °C
O=C1Cc2cc(CNC(=O)c3cccnc3Oc3cccc([N+](=O)[O-])c3)ccc2N1 [Example 106, 2-(3-Nitro-phenoxy)-N-(2-oxo-2,3-dihydro-1H-indol-5-ylmethyl)-nicotinamide]	190 to 192 °C
CC(C)(O)c1ccc(CNC(=O)c2cccnc2Oc2cccc([N+](=O)[O-])c2)cc1 [Example 107, N-[4-(1-Hydroxy-1-methyl-ethyl)-benzyl]-2-(3-nitro-phenoxy)-nicotinamide]	43 to 45 °C
Cc1cc(CNC(=O)c2cccnc2Oc2cccc([N+](=O)[O-])c2)cc(C)c1O [Example 108, N-(4-Hydroxy-3,5-dimethyl-benzyl)-2-(3-nitro-phenoxy)-nicotinamide]	128 to 130 °C
O=C(NCc1ccc(Cl)s1)c1cccnc1Oc1cccc([N+](=O)[O-])c1 [Example 109, N-(5-Chloro-thiophen-2-ylmethyl)-2-(3-nitro-phenoxy)-nicotinamide]	115 to 117 °C
